As usually defined, the IC50 is the concentration at which inhibition is half-maximal. For orientation: EC50 means the midpoint of the concentration-response curve. A low value points to greater potency.

For eleven molecules, IC50 and EC50 results are on record in patent US11286263B2, “Macrocyclic fluorine substituted indole derivatives” (The Broad Institute, Inc., priority 2017, dated 2022).

Each structure is given as a SMILES string. Counter-ions that a name gives are not always drawn. Like-named read-outs stand apart in the source and are kept apart here. Bounds are passed on as bounds.

One data set deals with SUDHL5. The data set can be described thus: Induction of cytotoxicity, SUDHL5 (Assay 6). The conditions noted are these: read-out: IC50 Cytotox SUDHL5 [M] (median), SUDHL5 cells, 5 h, CellTiter-Glo.
Another data set has as its target BCL-XL (Homo sapiens (Human), UniProt Q07817). The data set can be described thus: Protein-protein interaction assay BCL-XL/Bad BH3 peptide (BCL-XL assay), TR-FRET. Particulars: median. The data set is classed as binding. As to the method: Assay 2 Protein-Protein Interaction Assay: BCL-XL/Bad BH3 Peptide (BCL-XL Assay)
The dose-dependent inhibition by the compounds described in this invention of the interaction between BCL-XL and the BH3 domain of Bad (both human) was determined using a steady state binding competition assay with time-resolved fluorescence energy transfer (TR-FRET) readout. For that purpose BCL-XL (amino acids 1-212, C-terminal fused to a hexahistidine (6× His) tag (SEQ ID 3) and a synthetic Bad BH3-derived peptide of sequence Biotin-PEG2-PEG2-NLWAAQRYGRELRR-Nle-SDEFVDSFKK-amide (SEQ ID 4) served as protein receptor and tracer ligand respectively. The recombinant BCL-XL protein (expressed in Ecol) was purchased from BPS Bioscience (San Diego, Calif., USA). The Bad BH3-derived peptide can be obtained from e.g. Biosyntan (Berlin, Germany).
In the assay 11 different concentrations of each compound (0.1 nM, 0.33 nM, 1.1 nM, 3.8 nM, 13 nM, 44 nM, 0.15 μM, 0.51 μM, 1.7 μM, 5.9 μM and 20 μM) were typically measured as duplicates in the same microtiter plate. For that, 100-fold concentrated DMSO solutions were prepared by serial dilutions (1:3.4) of a 2 mM stock solution in a clear, 384-well microtiter plate (Greiner Bio-One, Frickenhausen, Germany). From there, 50 nl were transferred in a dark test plate (Greiner Bio-One, Frickenhausen, Germany). The assay was initiated by addition of 2 μl of a 2,5-fold concentrated His-BCL-XL solution (usually for a 1 nM end concentration in 5 μl reaction volume) in aqueous assay buffer [50 mM Tris/HCl pH 7, 100 mM sodium chloride (NaCl), 50 μM potassium fluoride (KF), 0.005% Tween-20, 2 mM DTT, 0.1% bovine gamma globulin (BGG)] to the compounds in the assay plate. This was followed by a 10-minute incubation step at 22° C. for pre-equilibration of the putative complex between His-BCL-XL and the compounds. After that, 3 μl of a 1.67-fold concentrated solution (in assay buffer) consisting of Bad BH3-derived peptide (1 nM end concentration) and TR-FRET detection reagents [1.67 nM anti-His-Eu cryptate and 1.67 nM streptavidin-XL665 (both from Cisbio Bioassays, Codolet, France)], were added.
The mixture was incubated in the dark for one hour at 22° C. and then overnight at 4° C. The formation of BCL-XL/Bad complexes was determined by measuring the resonance energy transfer of the anti-His-Eu-cryptate antibody to the streptavidin-XL665 present in the reaction. For that purpose, the fluorescence emission at 620 nm and 665 nm after excitation at 330-350 nm was measured in a TR-FRET measuring instrument, for instance a Rubystar or a Pherastar (both from BMG Lab Technologies, Offenburg, Germany) or a Viewlux (Perkin-Elmer). The ratio of the emission at 665 nm and at 622 nm was used as indicator of the amount of BCL-XL/Bad complexes present.
The resulting data (ratio) were normalized, taking 0% inhibition as the mean value of control measurements (usually 32 data points) where all reagents were included. In this case 50 nl DMSO were used instead of compounds. A 100% inhibition corresponded to the mean value of control measurements (usually 32 data points) where all reagents except BCL-XL were included. IC50 values were determined by regression analysis based on a 4 parameter equation (minimum, maximum, IC50, Hill; Y=Max+(Min−Max)/(1+(X/IC50)^Hill) using the Screener Software (Genedata).

The test system of data set [1] is SUDHL10. The data set can be described thus: Induction of cytotoxicity, SUDHL10 (Assay 6). Particulars: read-out: IC50 Cytotox SUDHL10 [M] (median), SUDHL10 cells, 5 h, CellTiter-Glo.
Protocol: (§1) In principle, compounds that induce apoptosis will concomitantly induce cell cytotoxicity. Therefore, cytotoxicity assays were run in parallel in SUDHL5 and SUDHL10 cells.
(§2) The different cell lines were plated in culture medium (RPMI 1640 [GIBCO #22400-089] supplemented with 10% Fetal Bovine Serum) at a density of 3,300 cells in 30 μl/well in a sterile, solid black, flat bottom, polystyrene, TC-treated 384-well microplate (Corning #3571) using Multidrop Combi Reagent Dispenser. As a control, medium without cells was also added to the plate. Cells were incubated in a humidified incubator at 37° C. overnight. On the next day, the cells were treated with compounds (stock solution, 10 mM in DMSO) using the HP D300 Digital Dispenser in a concentration range of 3.3×10e-5 M (33 μM) to 5×10e-9 M (5 nM) in a single-dot curve with at least 16 dilutions and a DMSO concentration of 0.33%. Rim wells were excluded. The cells were incubated for 5 h hours in a humidified incubator at 37° C. After this incubation, 30 μl of CellTiter-Glo® Luminescent Cell Viability reagent (Promega, G7573) was added to each well using the Multidrop Combi Reagent Dispenser, followed by 15 min incubation on a shaker at room temperature. Finally, luminescence was read at 0.1 ms, with a gain of 3000 using the PHERAstar FS microplate reader (BMG Labtech).
(§3) The Bella DRC Master Sheet was used to calculate IC50s, with fixed CI=0 and C0=1.
The subject of data set [2] is SUDHL10. Description: Induction of caspase-3/7 activity, SUDHL10 (Assay 4). The data set is classed as cell-based. Particulars: SUDHL10 cells. An outline of the steps:
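DLBCL lines treated with compounds for 3 h at 37° C.; caspase-3/7 activity read by Caspase-Glo 3/7 luminescence. Medium-only background subtracted; EC50 fitted with bottom fixed at 1 and top set to reference compound's maximal induction.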

The subject of a further data set is A2780. The data set can be described thus: Antiproliferation assay A2780 (Assay 7). Particulars: A2780 cells, CellTiter-Glo, single determinations, read-out: IC50 Antiproli A2780. The data set is classed as cell-based. An outline of the steps: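 Treated cells sat 72 h in a humidified 37 °C incubator, outer wells unused, before CellTiter-Glo reagent and a 10 min wait preceded luminescence reading; identical measurement of a parallel day 0 plate defined time zero.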
(In general: ATP-based viability assays read luminescence as a measure of living cells.)

Setting [3] is: Homo sapiens, SU-DHL10, 3 h, Caspase-Glo 3/7, median.

Sequence of BCL-XL (Q07817 1-212): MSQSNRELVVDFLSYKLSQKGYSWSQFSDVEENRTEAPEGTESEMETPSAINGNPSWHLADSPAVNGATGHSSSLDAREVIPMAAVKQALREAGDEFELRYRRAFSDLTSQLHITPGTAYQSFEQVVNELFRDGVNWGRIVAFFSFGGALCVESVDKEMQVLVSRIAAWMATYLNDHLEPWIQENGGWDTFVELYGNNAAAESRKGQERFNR
Protocol for SUDHL5: as §1, §2, §3

Take `Cc1c2c(nn1C)COCCCCn1c(C(=O)O)c(CCCOc3ccc(F)c4ccccc34)c3ccc(F)c-2c31` (racemic) [Example 15, (rac)-13-fluoro-1-(3-((4-fluoronaphthalen-1-yl)oxy)propyl)-11,12-dimethyl-4,5,6,7,9,11-hexahydropyrazolo[4′,3′:9,10][1]oxa[6]azacycloundecino[8,7,6-hi]indole-2-carboxylic acid]: the half-inhibitory concentration (IC50) with SUDHL5 (Homo sapiens, SU-DHL-5, 5 h) is 1.1e-06 M; against BCL-XL, above 20000 nM; in the data set on SUDHL10 [1] (Homo sapiens, SU-DHL10, 5 h), 3e-06 M. The same molecule had an EC50 with SUDHL10 [2] (setting [3]) of 5800 nM.
For `Cc1c2c(nn1C)COCCCCn1c(C(=O)O)c(CCCOc3cccc4c3CCCC4)c3ccc(F)c-2c31` (racemic) [Example 18, (rac)-13-fluoro-11,12-dimethyl-1-(3-((5,6,7,8-tetrahydronaphthalen-1-yl)oxy)propyl)-4,5,6,7,9,11-hexahydropyrazolo[4′,3′:9,10][1]oxa[6]azacycloundecino[8,7,6-hi]indole-2-carboxylic acid] the same measures were 8.8e-07 M, above 20000 nM, 1.7e-06 M and 2300 nM.
For `Cc1cc(OCCCc2c(C(=O)O)n3c4c(c(F)ccc24)-c2c(nn(C)c2C)COCCCC3)cc(C)c1Cl` (racemic) [Example 20, (rac)-1-(3-(4-chloro-3,5-dimethylphenoxy)propyl)-13-fluoro-11,12-dimethyl-4,5,6,7,9,11-hexahydropyrazolo[4′,3′:9,10][1]oxa[6]azacycloundecino[8,7,6-hi]indole-2-carboxylic acid] the same measures were 1.8e-06 M, above 20000 nM, 2.6e-06 M and 4000 nM.
As for `CCc1nn(C)c2c1-c1c(F)ccc3c(CCCOc4cccc5c4CCCC5)c(C(=O)O)n(c13)CCCCOC2` (racemic) [Example 44, (rac)-12-ethyl-13-fluoro-10-methyl-1-(3-((5,6,7,8-tetrahydronaphthalen-1-yl)oxy)propyl)-4,5,6,7,9,10-hexahydropyrazolo[4′,3′:9,10][1]oxa[6]azacycloundecino[8,7,6-hi]indole-2-carboxylic acid], the half-maximal inhibitory concentration (IC50) in the data set on SUDHL5 (Homo sapiens, SU-DHL-5, 5 h) was 1.9e-06 M; on BCL-XL, above 20000 nM; with SUDHL10 [1] (Homo sapiens, SU-DHL10, 5 h), 4.2e-06 M. Also, in the data set with SUDHL10 [2] (setting [3]), the EC50 was 4500 nM.
With `CCc1nn(C)c2c1-c1c(F)ccc3c(CCCOc4cc(C)c(Cl)c(C)c4)c(C(=O)O)n(c13)CCCCOC2` (racemic) [Example 46, (rac)-1-(3-(4-chloro-3,5-dimethylphenoxy)propyl)-12-ethyl-13-fluoro-10-methyl-4,5,6,7,9,10-hexahydropyrazolo[4′,3′:9,10][1]oxa[6]azacycloundecino[8,7,6-hi]indole-2-carboxylic acid], the IC50 is 3.1e-06 M in the data set on SUDHL5 (Homo sapiens, SU-DHL-5, 5 h); above 20000 nM on BCL-XL; 5.7e-06 M in the data set on SUDHL10 [1] (Homo sapiens, SU-DHL10, 5 h). Further, in the data set with SUDHL10 [2] (setting [3]), the midpoint of the response, the EC50, lay at 7700 nM.
Taken in the same sequence, the figures for `CCc1c2c(nn1C)CN(C)CCCCn1c(C(=O)O)c(CCCOc3cccc4c3CCC4)c3ccc(F)c-2c31` (racemic) [Example 51, (rac)-7-[3-(2,3-dihydro-1H-inden-4-yloxy)propyl]-3-ethyl-4-fluoro-2,14-dimethyl-10,11,12,13,14,15-hexahydro-2H-pyrazolo[3′,4′:8,9][1,6]diazacycloundecino[10,11,1-hi]indole-8-carboxylic acid] were 3.6e-07 M, above 20000 nM, 3.6e-07 M and 440 nM.
Taken in the same sequence, the figures for `CCc1c2c(nn1C)CN(C)CCCCn1c(C(=O)O)c(CCCOc3cccc4c3CCCC4)c3ccc(F)c-2c31` (racemic) [Example 52, (rac)-3-ethyl-4-fluoro-2,14-dimethyl-7-[3-(5,6,7,8-tetrahydronaphthalen-1-yloxy)propyl]-10,11,12,13,14,15-hexahydro-2H-pyrazolo[3′,4′:8,9][1,6]diazacycloundecino[10,11,1-hi]indole-8-carboxylic acid] were 4.3e-07 M, above 20000 nM, 3.1e-07 M and 210 nM.
`CCc1c2c(nn1C)CN(C)CCCCn1c(C(=O)O)c(CCCOc3cccc4cc(F)ccc34)c3ccc(F)c-2c31` (racemic) [Example 53, (rac)-3-ethyl-4-fluoro-7-{3-[(6-fluoro-1-naphthyhoxy]propyl}-2,14-dimethyl-10,11,12,13,14,15-hexahydro-2H-pyrazolo[3′,4′:8,9][1,6]diazacycloundecino[10,11,1-hi]indole-8-carboxylic acid]: the IC50 with SUDHL5 (Homo sapiens, SU-DHL-5, 5 h) was 3.3e-07 M; at BCL-XL, above 20000 nM; with SUDHL10 [1] (Homo sapiens, SU-DHL10, 5 h), 6.9e-07 M. For the same molecule, the EC50 with SUDHL10 [2] (setting [3]) was 490 nM.
Taken in the same sequence, the figures for `CCc1c2c(nn1C)CN(C)CCCCn1c(C(=O)O)c(CCCOc3cccc4ccccc34)c3ccc(F)c-2c31` (racemic) [Example 54, (rac)-3-ethyl-4-fluoro-2,14-dimethyl-7-[3-(1-naphthyloxy)propyl]-10,11,12,13,14,15-hexahydro-2H-pyrazolo[3′,4′:8,9][1,6]diazacycloundecino[10,11,1-hi]indole-8-carboxylic acid] were 4.5e-07 M, above 20000 nM, 1.4e-06 M and 680 nM.
For the molecule `CCc1c2c(nn1C)COCCCCn1c(C(=O)O)c(CCCOc3cccc4cc(F)ccc34)c3ccc(F)c-2c31` (single isomer, unassigned; enantiomer 1) [Example 22, 3-ethyl-4-fluoro-7-{3-[(6-fluoronaphthalen-1-yl)oxy]propyl}-2-methyl-2,10,11,12,13,15-hexahydropyrazolo[4′,3′:9,10][1,6]oxazacycloundecino[8,7,6-hi]indole-8-carboxylic acid-N-ethylethanamine salt (enantiomer 1)], the IC50 with SUDHL5 came to 3.3e-07 M; in the data set on A2780 (Homo sapiens, A2780, 72 h) it was 3880 nM; in the data set with SUDHL10 [1], 5.5e-07 M. Also, the midpoint of the response with SUDHL10 [2] (3 h, Caspase-Glo 3/7, median), the EC50, lay at 380 nM.
As to `CCc1nn(C)c2c1-c1c(F)ccc3c(CCCOc4cccc5cc(F)ccc45)c(C(=O)O)n(c13)CCCCOC2` (single isomer, unassigned; enantiomer 1) [Example 39, 3-ethyl-4-fluoro-7-{3-[(6-fluoronaphthalen-1-yl)oxy]propyl}-1-methyl-1,10,11,12,13,15-hexahydropyrazolo[4′,3′:9,10][1,6]oxazacycloundecino[8,7,6-hi]indole-8-carboxylic acid-N-ethylethanamine salt (enantiomer 1)], the figures for the IC50 in the data set with SUDHL5, in the data set with A2780 (72 h) and in the data set on SUDHL10 [1] were 6.2e-07 M, 4840 nM and 1e-06 M, respectively. Further, in the data set on SUDHL10 [2] (3 h, Caspase-Glo 3/7, median), the concentration giving a half-maximal response (EC50) worked out at 940 nM.
